Experimental data from patent publication US12673945B2, “3-((8-((1H-pyrazol-4-yl)amino)imidazo[1,2-a]pyridin-3-yl)ethinyl)-n-phenylbenzamide derivative, method for preparing same, and pharmaceutical composition containing same as active ingredient for prevention or treatment of cancer” (DAEGU-GYEONGBUK MEDICAL INNOVATION FOUNDATION, priority 2020, dated 2026).

Experiments:
Assay in all cases: scanMAX Kinase panel (DiscoverX)
Format in all cases: binding
TRKC = target: T1, TRKC (Homo sapiens, UniProt Q16288); conditions: read-out: % Cont @ 1 uM
T1 construct: purchased DiscoverX scanMAX Kinase panel
Experimental: (§1) Among the example compounds of the present invention, the enzyme (kinase) selectivity of the selected compounds of Examples 1 and 4 was measured by requesting DiscoverX. At this time, the experiment was performed using a panel for scanMAX™ Kinase. The concentration of the drug treated to the enzyme was 1 μM in DMSO, and the percentage control (% control) was determined by the method shown in Equation 1 below. (Example Compound−Positive Control)/(Negative Control−Positive control)×100 [Equation 1]

FLT3(ITD, F691L) = system: FLT3(ITD, F691L)
Experimental: as §1

KIT(A829P) = target: T2, KIT(A829P) (Homo sapiens, UniProt P10721, A829P); conditions: read-out: % Cont @ 1 uM
T2 construct: purchased DiscoverX scanMAX Kinase panel
T2 sequence (P10721 26-976 A829P): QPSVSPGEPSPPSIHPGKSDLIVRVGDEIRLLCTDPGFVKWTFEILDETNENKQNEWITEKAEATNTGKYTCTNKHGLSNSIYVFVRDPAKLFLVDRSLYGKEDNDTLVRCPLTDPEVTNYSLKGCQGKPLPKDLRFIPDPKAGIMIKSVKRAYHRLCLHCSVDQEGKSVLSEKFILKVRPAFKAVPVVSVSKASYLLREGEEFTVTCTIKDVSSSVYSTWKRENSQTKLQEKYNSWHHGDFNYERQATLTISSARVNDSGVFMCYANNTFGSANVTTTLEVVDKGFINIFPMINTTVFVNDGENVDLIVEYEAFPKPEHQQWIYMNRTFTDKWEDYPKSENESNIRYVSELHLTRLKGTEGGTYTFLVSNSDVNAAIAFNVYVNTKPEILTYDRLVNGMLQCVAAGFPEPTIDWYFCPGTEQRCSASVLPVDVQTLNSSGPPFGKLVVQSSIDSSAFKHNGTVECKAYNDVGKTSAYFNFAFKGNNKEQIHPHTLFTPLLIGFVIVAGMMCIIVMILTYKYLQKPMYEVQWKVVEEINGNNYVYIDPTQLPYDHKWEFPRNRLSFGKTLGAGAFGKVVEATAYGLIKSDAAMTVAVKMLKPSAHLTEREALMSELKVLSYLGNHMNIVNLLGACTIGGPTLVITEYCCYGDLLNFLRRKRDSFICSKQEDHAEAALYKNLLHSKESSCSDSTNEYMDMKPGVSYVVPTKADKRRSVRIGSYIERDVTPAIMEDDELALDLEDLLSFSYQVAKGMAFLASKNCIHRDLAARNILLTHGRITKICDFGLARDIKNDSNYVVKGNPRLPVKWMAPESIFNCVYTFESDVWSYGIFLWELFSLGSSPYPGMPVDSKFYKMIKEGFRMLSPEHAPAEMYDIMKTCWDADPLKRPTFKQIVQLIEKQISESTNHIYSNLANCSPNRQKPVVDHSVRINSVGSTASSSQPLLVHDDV
Experimental: as §1

CDC2L2 = target: T3, CDC2L2 (Homo sapiens, UniProt Q9UQ88); conditions: read-out: % Cont @ 1 uM
T3 construct: purchased DiscoverX scanMAX Kinase panel
Experimental: as §1

PFCDPK1(P. falciparum) = target: T4, PFCDPK1(P. falciparum) (Plasmodium falciparum, UniProt P62344); conditions: read-out: % Cont @ 1 uM
T4 construct: purchased DiscoverX scanMAX Kinase panel
Experimental: as §1

PAK3 = target: T5, PAK3 (Homo sapiens, UniProt O75914); conditions: read-out: % Cont @ 1 uM
T5 construct: purchased DiscoverX scanMAX Kinase panel
Experimental: as §1

PDGFRB = target: T6, PDGFRB (Homo sapiens, UniProt P09619); conditions: read-out: % Cont @ 1 uM
T6 construct: purchased DiscoverX scanMAX Kinase panel
Experimental: as §1

BMX = target: T7, BMX (Homo sapiens, UniProt P51813); conditions: read-out: % Cont @ 1 uM
T7 construct: purchased DiscoverX scanMAX Kinase panel
T7 sequence (P51813 whole entry): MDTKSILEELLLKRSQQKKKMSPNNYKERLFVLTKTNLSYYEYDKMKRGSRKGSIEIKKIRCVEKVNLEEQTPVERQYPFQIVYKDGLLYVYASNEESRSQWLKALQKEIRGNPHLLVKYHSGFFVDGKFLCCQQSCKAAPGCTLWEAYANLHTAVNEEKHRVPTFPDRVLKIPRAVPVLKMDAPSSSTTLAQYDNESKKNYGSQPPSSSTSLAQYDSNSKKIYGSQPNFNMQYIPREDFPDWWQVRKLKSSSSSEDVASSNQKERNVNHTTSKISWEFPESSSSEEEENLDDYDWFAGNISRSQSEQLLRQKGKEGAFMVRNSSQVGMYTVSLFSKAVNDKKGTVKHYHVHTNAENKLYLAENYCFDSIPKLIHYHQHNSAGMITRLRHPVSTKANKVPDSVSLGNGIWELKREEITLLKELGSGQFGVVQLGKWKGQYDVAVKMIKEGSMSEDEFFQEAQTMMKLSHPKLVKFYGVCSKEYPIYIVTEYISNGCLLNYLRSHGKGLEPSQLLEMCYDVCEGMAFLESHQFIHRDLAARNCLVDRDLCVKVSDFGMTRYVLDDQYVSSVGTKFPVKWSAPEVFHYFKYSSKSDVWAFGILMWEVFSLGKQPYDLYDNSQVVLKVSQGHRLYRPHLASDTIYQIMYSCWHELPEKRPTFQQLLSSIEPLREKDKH
Experimental: as §1

[1] = target: T8, ABL1(Q252H)-nonphosphorylated (Homo sapiens, UniProt P00519, Q252H); conditions: read-out: % Cont @ 1 uM
T8 construct: purchased DiscoverX
Experimental: as §1

TAK1 = target: T9, TAK1 (Homo sapiens, UniProt O43318); conditions: read-out: % Cont @ 1 uM
T9 construct: purchased DiscoverX scanMAX Kinase panel
T9 sequence (O43318 whole entry): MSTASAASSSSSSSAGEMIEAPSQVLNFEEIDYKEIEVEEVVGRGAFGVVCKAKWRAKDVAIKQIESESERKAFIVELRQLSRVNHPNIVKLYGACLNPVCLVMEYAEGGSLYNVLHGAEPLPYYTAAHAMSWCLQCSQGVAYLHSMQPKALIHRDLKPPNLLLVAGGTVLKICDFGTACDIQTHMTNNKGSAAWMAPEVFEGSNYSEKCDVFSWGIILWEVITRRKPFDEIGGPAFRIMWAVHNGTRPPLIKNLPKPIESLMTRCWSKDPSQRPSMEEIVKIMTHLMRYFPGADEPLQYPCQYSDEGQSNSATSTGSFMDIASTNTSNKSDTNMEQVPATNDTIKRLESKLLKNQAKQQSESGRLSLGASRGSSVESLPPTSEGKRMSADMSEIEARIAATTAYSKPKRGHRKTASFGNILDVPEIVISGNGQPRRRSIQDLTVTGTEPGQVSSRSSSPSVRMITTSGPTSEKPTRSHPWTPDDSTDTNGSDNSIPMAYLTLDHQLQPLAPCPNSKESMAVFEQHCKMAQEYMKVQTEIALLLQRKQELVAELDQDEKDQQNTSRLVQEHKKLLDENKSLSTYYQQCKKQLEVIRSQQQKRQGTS
Experimental: as §1

CIT = target: T10, CIT (Homo sapiens, UniProt O14578)
T10 construct: purchased DiscoverX scanMAX Kinase panel
Experimental: as §1

EPHA8 = target: T11, EPHA8 (Homo sapiens, UniProt P29322); conditions: read-out: % Cont @ 1 uM
T11 construct: purchased DiscoverX scanMAX Kinase panel
T11 sequence (P29322 28-1005): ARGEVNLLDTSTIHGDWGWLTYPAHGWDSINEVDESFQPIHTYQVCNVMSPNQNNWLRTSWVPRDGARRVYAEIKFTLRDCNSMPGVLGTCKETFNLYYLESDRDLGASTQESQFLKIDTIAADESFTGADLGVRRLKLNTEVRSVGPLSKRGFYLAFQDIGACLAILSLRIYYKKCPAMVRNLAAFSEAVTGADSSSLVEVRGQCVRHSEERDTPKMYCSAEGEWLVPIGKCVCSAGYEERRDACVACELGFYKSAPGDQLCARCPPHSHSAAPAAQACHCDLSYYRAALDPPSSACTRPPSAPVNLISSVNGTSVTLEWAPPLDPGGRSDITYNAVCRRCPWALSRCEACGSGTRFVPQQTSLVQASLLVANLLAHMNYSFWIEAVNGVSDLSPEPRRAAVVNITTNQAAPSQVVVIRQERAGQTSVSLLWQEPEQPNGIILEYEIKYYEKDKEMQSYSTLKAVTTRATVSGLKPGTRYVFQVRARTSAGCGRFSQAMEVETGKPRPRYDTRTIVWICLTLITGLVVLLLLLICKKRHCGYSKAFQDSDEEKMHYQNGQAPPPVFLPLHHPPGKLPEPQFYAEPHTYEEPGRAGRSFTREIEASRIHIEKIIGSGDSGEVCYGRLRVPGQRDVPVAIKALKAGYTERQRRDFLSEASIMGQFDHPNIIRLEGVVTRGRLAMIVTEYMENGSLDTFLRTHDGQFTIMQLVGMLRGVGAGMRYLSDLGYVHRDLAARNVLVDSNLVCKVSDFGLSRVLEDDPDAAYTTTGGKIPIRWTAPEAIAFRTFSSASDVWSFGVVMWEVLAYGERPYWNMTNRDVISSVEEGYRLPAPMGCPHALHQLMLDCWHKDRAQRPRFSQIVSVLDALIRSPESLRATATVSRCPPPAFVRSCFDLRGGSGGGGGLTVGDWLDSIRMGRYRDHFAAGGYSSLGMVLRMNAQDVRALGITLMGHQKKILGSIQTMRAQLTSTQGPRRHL
Experimental: as §1

[2] = target: T12, TYK2(JH1domain-catalytic) (Homo sapiens, UniProt P29597)
T12 construct: TYK2(JH1domain-catalytic); purchased DiscoverX scanMAX Kinase panel
Experimental: as §1

PFTK1 = target: T13, PFTK1 (Homo sapiens, UniProt O94921)
T13 construct: purchased DiscoverX scanMAX Kinase panel
Experimental: as §1

EGFR(S752-I759del) = target: T14, EGFR(S752-I759del) (Homo sapiens, UniProt P00533, DEL752-759)
T14 construct: purchased DiscoverX scanMAX Kinase panel
Experimental: as §1

IRAK1 = target: T15, IRAK1 (Homo sapiens, UniProt P51617); conditions: read-out: % Cont @ 1 uM
T15 construct: purchased DiscoverX scanMAX Kinase panel
Experimental: as §1

[3] = target: T16, ABL1(F317I)-nonphosphorylated (Homo sapiens, UniProt P00519, F317I); conditions: read-out: % Cont @ 1 uM
T16 construct: purchased DiscoverX
Experimental: as §1

TRKB = target: T17, TRKB (Homo sapiens, UniProt Q16620); conditions: read-out: % Cont @ 1 uM
T17 construct: purchased DiscoverX scanMAX Kinase panel
T17 sequence (Q16620 32-822): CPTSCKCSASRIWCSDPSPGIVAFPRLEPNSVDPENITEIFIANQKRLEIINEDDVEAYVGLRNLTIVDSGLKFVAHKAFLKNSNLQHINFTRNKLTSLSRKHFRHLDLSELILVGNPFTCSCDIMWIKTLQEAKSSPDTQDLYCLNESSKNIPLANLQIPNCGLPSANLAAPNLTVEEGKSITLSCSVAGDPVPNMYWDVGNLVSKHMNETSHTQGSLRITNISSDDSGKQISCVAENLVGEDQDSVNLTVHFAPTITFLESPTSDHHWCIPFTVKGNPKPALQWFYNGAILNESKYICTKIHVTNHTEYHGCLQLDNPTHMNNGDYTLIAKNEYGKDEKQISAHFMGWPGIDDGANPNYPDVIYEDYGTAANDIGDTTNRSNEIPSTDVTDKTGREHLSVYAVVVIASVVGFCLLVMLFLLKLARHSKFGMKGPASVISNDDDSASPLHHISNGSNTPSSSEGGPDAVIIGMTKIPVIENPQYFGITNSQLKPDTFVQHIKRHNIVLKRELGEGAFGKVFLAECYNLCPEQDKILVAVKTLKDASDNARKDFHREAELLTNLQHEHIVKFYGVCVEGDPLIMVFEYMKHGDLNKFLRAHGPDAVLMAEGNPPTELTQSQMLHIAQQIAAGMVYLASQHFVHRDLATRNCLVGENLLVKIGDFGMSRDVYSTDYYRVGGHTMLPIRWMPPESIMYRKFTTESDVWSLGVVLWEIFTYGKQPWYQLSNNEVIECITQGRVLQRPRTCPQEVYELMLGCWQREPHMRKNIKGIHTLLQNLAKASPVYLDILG
Experimental: as §1

MLK1 = target: T18, MLK1 (Homo sapiens, UniProt P80192); conditions: read-out: % Cont @ 1 uM
T18 construct: purchased DiscoverX scanMAX Kinase panel
Experimental: as §1

[4] = target: T19, ABL1(T315I)-phosphorylated (Homo sapiens, UniProt P00519, T315I); conditions: read-out: % Cont @ 1 uM
T19 construct: purchased DiscoverX
Experimental: as §1

FLT3(D835H) = target: T20, FLT3(D835H) (Homo sapiens, UniProt P36888, D835H); conditions: read-out: % Cont @ 1 uM
T20 construct: purchased DiscoverX scanMAX Kinase panel
Experimental: as §1

FLT3 = target: T21, FLT3 (Homo sapiens, UniProt P36888); conditions: read-out: % Cont @ 1 uM
T21 construct: purchased DiscoverX scanMAX Kinase panel
Experimental: as §1

TEC = target: T22, TEC (Homo sapiens, UniProt P42680); conditions: read-out: % Cont @ 1 uM
T22 construct: purchased DiscoverX scanMAX Kinase panel
Experimental: as §1

NEK4 = target: T23, NEK4 (Homo sapiens, UniProt P51957); conditions: read-out: % Cont @ 1 uM
T23 construct: purchased DiscoverX scanMAX Kinase panel
Experimental: as §1

KIT(V559D, T670I) = target: T24, KIT(V559D, T670I) (Homo sapiens, UniProt P10721, T670I/V559D); conditions: read-out: % Cont @ 1 uM
T24 construct: purchased DiscoverX scanMAX Kinase panel
T24 sequence (P10721 26-976 V559D/T670I): as the sequence (P10721 26-976 A829P) above, with V534D, T645I, P804A counted along it
Experimental: as §1

KIT(L576P) = target: T25, KIT(L576P) (Homo sapiens, UniProt P10721, L576P); conditions: read-out: % Cont @ 1 uM
T25 construct: purchased DiscoverX scanMAX Kinase panel
Experimental: as §1

FLT4 = target: T26, FLT4 (Homo sapiens, UniProt P35916); conditions: read-out: % Cont @ 1 uM
T26 construct: purchased DiscoverX scanMAX Kinase panel
Experimental: as §1

[5] = target: T27, ABL1(Q252H)-phosphorylated (Homo sapiens, UniProt P00519, Q252H); conditions: read-out: % Cont @ 1 uM
T27 construct: purchased DiscoverX
Experimental: as §1

TAOK2 = target: T28, TAOK2 (Homo sapiens, UniProt Q9UL54); conditions: read-out: % Cont @ 1 uM
T28 construct: purchased DiscoverX scanMAX Kinase panel
Experimental: as §1

FLT3(D835Y) = target: T29, FLT3(D835Y) (Homo sapiens, UniProt P36888, D835Y); conditions: read-out: % Cont @ 1 uM
T29 construct: purchased DiscoverX scanMAX Kinase panel
Experimental: as §1

MST3 = target: T30, MST3 (Homo sapiens, UniProt Q9Y6E0)
T30 construct: purchased DiscoverX scanMAX Kinase panel
T30 sequence (Q9Y6E0 whole entry): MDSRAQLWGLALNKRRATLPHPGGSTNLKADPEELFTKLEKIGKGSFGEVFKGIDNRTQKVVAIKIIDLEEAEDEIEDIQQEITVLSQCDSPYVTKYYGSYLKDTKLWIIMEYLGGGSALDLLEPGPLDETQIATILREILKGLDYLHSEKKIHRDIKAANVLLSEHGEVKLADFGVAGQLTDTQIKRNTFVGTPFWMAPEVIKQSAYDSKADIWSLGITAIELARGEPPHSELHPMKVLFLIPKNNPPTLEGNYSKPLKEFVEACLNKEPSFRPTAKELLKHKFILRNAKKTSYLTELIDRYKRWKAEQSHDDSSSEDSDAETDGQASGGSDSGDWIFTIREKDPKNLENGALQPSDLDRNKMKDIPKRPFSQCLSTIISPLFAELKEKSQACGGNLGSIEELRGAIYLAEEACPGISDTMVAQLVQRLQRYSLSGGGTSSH
Experimental: as §1

CSF1R = target: T31, CSF1R (Homo sapiens, UniProt P07333); conditions: read-out: % Cont @ 1 uM
T31 construct: purchased DiscoverX scanMAX Kinase panel
Experimental: as §1

CDC2L1 = target: T32, CDC2L1 (Homo sapiens, UniProt P21127); conditions: read-out: % Cont @ 1 uM
T32 construct: purchased DiscoverX scanMAX Kinase panel
Experimental: as §1

TIE1 = target: T33, TIE1 (Homo sapiens, UniProt P35590); conditions: read-out: % Cont @ 1 uM
T33 construct: purchased DiscoverX scanMAX Kinase panel
Experimental: as §1

ERBB2 = target: T34, ERBB2 (Homo sapiens, UniProt P04626); conditions: read-out: % Cont @ 1 uM
T34 construct: purchased DiscoverX scanMAX Kinase panel
Experimental: as §1

KIT(V559D) = target: T35, KIT(V559D) (Homo sapiens, UniProt P10721, V559D); conditions: read-out: % Cont @ 1 uM
T35 construct: purchased DiscoverX scanMAX Kinase panel
T35 sequence (P10721 26-976 V559D): as the sequence (P10721 26-976 A829P) above, with V534D, P804A counted along it
Experimental: as §1

STK33 = target: T36, STK33 (Homo sapiens, UniProt Q9BYT3); conditions: read-out: % Cont @ 1 uM
T36 construct: purchased DiscoverX scanMAX Kinase panel
T36 sequence (Q9BYT3 whole entry): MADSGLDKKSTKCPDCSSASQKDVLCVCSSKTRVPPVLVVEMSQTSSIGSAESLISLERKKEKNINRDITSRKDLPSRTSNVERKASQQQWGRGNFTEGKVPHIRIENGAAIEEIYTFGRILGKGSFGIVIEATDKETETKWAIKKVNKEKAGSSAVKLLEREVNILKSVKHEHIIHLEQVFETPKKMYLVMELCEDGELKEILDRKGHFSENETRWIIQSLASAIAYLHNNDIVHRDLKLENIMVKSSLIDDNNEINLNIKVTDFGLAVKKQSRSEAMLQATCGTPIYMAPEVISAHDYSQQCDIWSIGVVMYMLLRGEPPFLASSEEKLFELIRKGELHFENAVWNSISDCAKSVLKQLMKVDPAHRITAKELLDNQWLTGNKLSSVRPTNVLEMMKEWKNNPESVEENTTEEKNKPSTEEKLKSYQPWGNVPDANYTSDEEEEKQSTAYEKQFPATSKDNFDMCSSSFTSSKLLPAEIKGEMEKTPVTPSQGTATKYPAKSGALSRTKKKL
Experimental: as §1

[6] = target: T37, ABL1(T315I)-nonphosphorylated (Homo sapiens, UniProt P00519, T315I); conditions: read-out: % Cont @ 1 uM
T37 construct: purchased DiscoverX
Experimental: as §1

| Compound | remaining binding at 1 µM (TRKC) | % Cont @ 1 uM (FLT3(ITD, F691L)) | percent of control binding at 1 µM (KIT(A829P)) | remaining binding at 1 µM (CDC2L2) | remaining binding at 1 µM (PFCDPK1(P. falciparum)) | remaining binding at 1 µM (PAK3) | remaining binding at 1 µM (PDGFRB) | remaining binding at 1 µM (BMX) | remaining binding at 1 µM [1] | remaining binding at 1 µM (TAK1) | % Cont @ 1 uM (CIT) | remaining binding at 1 µM (EPHA8) | % Cont @ 1 uM [2] | % Cont @ 1 uM (PFTK1) | % Cont @ 1 uM (EGFR(S752-I759del)) | percent of control binding at 1 µM (IRAK1) | remaining binding at 1 µM [3] | remaining binding at 1 µM (TRKB) | percent of control binding at 1 µM (MLK1) | remaining binding at 1 µM [4] | also measured |
| --- | --- | --- | --- | --- | --- | --- | --- | --- | --- | --- | --- | --- | --- | --- | --- | --- | --- | --- | --- | --- | --- |
| Cc1cn(-c2cc(NC(=O)c3cc(C#Cc4cnc5c(Nc6cnn(C)c6)cccn45)c(C)cc3F)cc(C(C)(C)C#N)c2)cn1 [Example 1, N-(3-(2-cyanopropane-2-yl)-5-(4-methyl-1H-imidazol-1-yl)phenyl)-2-fluoro-4-methyl-5-((8-((1-methyl-1H-pyrazol-4-yl)amino)imidazo[1,2-a]pyridin-3-yl)ethynyl)benzamide] | 0.05% | 5.1% | 1.1% | 24% | 12% | 7.1% | 0% | 6.7% | 15% | 4.3% | 0.1% | 0.1% | 33% | 8.3% | 5.7% | 27% | 50% | 0.6% | 18% | 2.3% | remaining binding at 1 µM (FLT3(D835H)): 0.45%; remaining binding at 1 µM (FLT3): 2%; remaining binding at 1 µM (TEC): 1.3%; remaining binding at 1 µM (NEK4): 28%; remaining binding at 1 µM (KIT(V559D, T670I)): 1.2%; remaining binding at 1 µM (KIT(L576P)): 1.4%; remaining binding at 1 µM (FLT4): 0.35%; remaining binding at 1 µM [5]: 1.3%; remaining binding at 1 µM (TAOK2): 20%; remaining binding at 1 µM (FLT3(D835Y)): 14%; % Cont @ 1 uM (MST3): 20%; remaining binding at 1 µM (CSF1R): 0.2%; remaining binding at 1 µM (CDC2L1): 27%; remaining binding at 1 µM (TIE1): 3.5%; remaining binding at 1 µM (ERBB2): 34%; remaining binding at 1 µM (KIT(V559D)): 0%; remaining binding at 1 µM (STK33): 12%; remaining binding at 1 µM [6]: 8.9% |
| Cc1cn(-c2cc(NC(=O)c3cc(C#Cc4cnc5c(Nc6cnn(C)c6)cccn45)c(C)cc3F)cc(C(F)(F)F)c2)cn1 [Example 4, 2-fluoro-4-methyl-N-(3-(4-methyl-1H-imidazol-1-yl)-5-(trifluoromethyl)phenyl)-5-((8-((1-methyl-1H-pyrazol-4-yl)amino)imidazo[1,2-a]pyridin-3-yl)ethynyl)benzamide] | 1.4% | 37% | 2% | 83% | 48% | 10% | 0.05% | 3.6% | 4.1% | 50% | 0.45% | 1.6% | 72% | 94% | 30% | 100% | 2.8% | 7.7% | 76% | 16% | remaining binding at 1 µM (FLT3(D835H)): 4.5%; remaining binding at 1 µM (FLT3): 1.9%; remaining binding at 1 µM (TEC): 46%; remaining binding at 1 µM (NEK4): 90%; remaining binding at 1 µM (KIT(V559D, T670I)): 12%; remaining binding at 1 µM (KIT(L576P)): 2.8%; remaining binding at 1 µM (FLT4): 4.4%; remaining binding at 1 µM [5]: 14%; remaining binding at 1 µM (TAOK2): 35%; remaining binding at 1 µM (FLT3(D835Y)): 22%; % Cont @ 1 uM (MST3): 70%; remaining binding at 1 µM (CSF1R): 2.5%; remaining binding at 1 µM (CDC2L1): 79%; remaining binding at 1 µM (TIE1): 4.1%; remaining binding at 1 µM (ERBB2): 65%; remaining binding at 1 µM (KIT(V559D)): 0.25%; remaining binding at 1 µM (STK33): 76%; remaining binding at 1 µM [6]: 10% |
